Data on 10 compounds can be found in patent US7371737B2, “2-substituted-6-trifluoromethyl purine derivatives with adenosine-A3 antagonistic activity” (Solvay Pharmaceuticals, B.V., priority 2004, dated 2008).

The target of data set [1] is T1, human adenosine-A1 receptors (Homo sapiens, UniProt P30542).
T1 construct: expressed in transfected cells; host or cells: CHO cells
T1 sequence (P30542 1-326): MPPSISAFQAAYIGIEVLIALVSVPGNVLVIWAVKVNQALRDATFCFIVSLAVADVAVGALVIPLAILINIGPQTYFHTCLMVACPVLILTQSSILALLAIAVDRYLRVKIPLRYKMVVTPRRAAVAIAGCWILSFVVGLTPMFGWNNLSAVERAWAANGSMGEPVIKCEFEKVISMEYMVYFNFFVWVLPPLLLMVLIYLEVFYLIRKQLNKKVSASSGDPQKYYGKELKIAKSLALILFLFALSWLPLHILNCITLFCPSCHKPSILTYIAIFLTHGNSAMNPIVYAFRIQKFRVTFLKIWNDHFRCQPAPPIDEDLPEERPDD
In words: In vitro affinity for human adenosine-A1 receptors (radioligand [3H]DPCPX). The data set is classed as binding. The following applies: human recombinant receptors expressed in CHO cells; for Ki: read-out: Adenosine receptor affinity (binding) A1 pKi (converted). Here is the method:
Affinity of the compounds for human adenosine-A1 receptors was determined using the receptor binding assay described by A. Townsend-Nicholson and P. R. Schofield (Biol. Chem., 269, 2373, 1994), using human recombinant receptors expressed in CHO cells, and [^3H]DPCPX as radioligand.

Data set [2] has as its target T2, human adenosine-A2A receptors (Homo sapiens, UniProt P29274).
T2 construct: expressed in transfected cells; host or cells: HEK-293 cells
In words: In vitro affinity for human adenosine-A2A receptors (radioligand [3H]CGS 21680). The following applies: human recombinant receptors expressed in HEK-293 cells; for Ki: read-out: Adenosine receptor affinity (binding) A2A pKi (converted). The data set is classed as binding. Here is the method:
Affinity of the compounds for human adenosine-A2A receptors was determined using the receptor binding assay described by D. R. Luthin et al., (Mol. Pharmacol., 47, 307, 1995), using human recombinant receptors expressed in HEK-293 cells, and [^3H]CGS 21680 as radioligand.

Data set [3] has as its target T3, human adenosine-A2B receptors (Homo sapiens, UniProt P29275).
T3 construct: expressed in transfected cells; host or cells: HEK-293 cells
T3 sequence (P29275 1-332): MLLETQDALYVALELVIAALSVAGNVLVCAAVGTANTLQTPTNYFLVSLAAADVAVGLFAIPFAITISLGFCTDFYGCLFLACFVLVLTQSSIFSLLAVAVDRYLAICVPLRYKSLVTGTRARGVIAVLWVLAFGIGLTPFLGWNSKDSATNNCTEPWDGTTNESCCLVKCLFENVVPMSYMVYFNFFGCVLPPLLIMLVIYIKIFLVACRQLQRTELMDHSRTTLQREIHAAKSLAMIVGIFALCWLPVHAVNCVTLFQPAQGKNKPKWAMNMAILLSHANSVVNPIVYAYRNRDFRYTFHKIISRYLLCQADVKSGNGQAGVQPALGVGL
In words: In vitro affinity for human adenosine-A2B receptors (radioligand [3H]MRS 1754). The data set is classed as binding. The settings on record: human recombinant receptors expressed in HEK-293 cells; for Ki: read-out: Adenosine receptor affinity (binding) A2B pKi (converted). Here is the method: Affinity of the compounds for human adenosine-A2B receptors was determined using the receptor binding assay described by J. H. Stehle et al. (Mol. Endocrinol., 6, 384, 1992), using human recombinant receptors expressed in HEK-293 cells, and [^3H]MRS 1754 as radioligand.

Data set [4] has as its target T4, human Adenosine A3 receptor (Homo sapiens, UniProt P0DMS8).
T4 sequence (P0DMS8 1-318): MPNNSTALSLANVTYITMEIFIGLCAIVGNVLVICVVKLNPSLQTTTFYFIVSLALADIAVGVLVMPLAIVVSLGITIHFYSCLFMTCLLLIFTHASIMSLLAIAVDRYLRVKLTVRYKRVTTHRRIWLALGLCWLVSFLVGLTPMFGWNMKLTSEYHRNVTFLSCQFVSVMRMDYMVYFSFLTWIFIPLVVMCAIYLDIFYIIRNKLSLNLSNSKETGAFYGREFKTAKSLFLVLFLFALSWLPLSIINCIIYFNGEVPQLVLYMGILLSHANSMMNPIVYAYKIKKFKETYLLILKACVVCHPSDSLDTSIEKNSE
Put plainly: In vitro affinity for human adenosine-A3 receptors (radioligand [125I]-AB-MECA). The following applies: membranes of HEK 293 cells stably expressing human A3, [125I]-AB-MECA, 22° C., 90 minutes; read-out: Adenosine receptor affinity (binding) A3 pKi (converted). The class given is binding. Further details: expressed in transfected cells; host or cells: HEK 293 cells (membrane preparations). Here is the method:
Affinity of the compounds for human adenosine-A3 receptors was determined using the receptor binding assay described by C. A. Salvatore et al.: “Molecular cloning and characterization of the human A3 adenosine receptor”, Proc. Natl. Acad. Sci. USA, 90, 10365-10369, 1993. Briefly, membrane preparations were obtained from human recombinant (HEK 293) cells in which the human adenosine-A3 receptor was stably expressed. […] Separation of bound radioactivity from free was done by filtration through Packard GF/B glass fiber filters with several washings with ice-cold buffer using a Packard cell harvester. Bound radioactivity was measured with a scintillation counter (Topcount, Packard) using a liquid scintillation cocktail (Microscint 0, Packard). […] Determination of In Vitro Functional Activity on Human Adenosine A3 Receptors Using an Aequorin-based Assay

In data set [5] the target is T4, human Adenosine A3 receptor. Put plainly: In vitro functional activity on human adenosine A3 receptors using an Aequorin-based assay. The class given is cell-based. Further details: A. et al. (Acc. Number GenBank: L22607); host or cells: CHO-K1 cells stably expressing mitochondrially targeted aequorin and Galpha16. The following applies: hA3-Aequorin CHO-K1 cells; for EC50: agonist mode, concentrations up to 10^−5 M, read-out: Functional activity A3 agonism pEC50 (converted); for Kb: read-out: Functional activity A3 antagonism pA2 (converted). An excerpt: A stable monoclonal hA3-Aequorin cell line was provided by Euroscreen. The coding region encoding the human Adenosine A3 receptor was amplified by polymerase chain reaction (PCR), using human lung cDNA as template. The PCR product was ligated in the expression vector pEFIN3 (Invitrogen), and the complete sequence of the insert was then established. […] A. et al. (Acc. Number GenBank: L22607). The expression plasmid containing the coding sequence of the human Adenosine A3 receptor was transfected in CHO-K1 cells stably expressing mitochondrially targetted Aequorin and Gα16. Resistant clones were selected in the presence of 400 μg/ml G418 and isolated by limiting dilution. […] The hA3-Aequorin cells express mitochondrially targetted apo-Aequorin. Cells have to be loaded with coelenterazine, in order to reconstitute active Aequorin. After binding of agonists to the hA3 receptor, the intracellular calcium concentration increases, which leads to a luminescent response. Binding of calcium to the apo-Aequorin/coelenterazine complex leads to an oxidation reaction of coelenterazine, which results in the production of apo-Aequorin, coelenteramide, CO2 and light (λmax 469 nm). This luminescent response is dependent on the agonist concentration.
Assay-protocol: • Dilute the loaded cells 18× in Dulbecco's medium without PhenolRed (Gibco BRL), pre-heated to 37° C., resulting in a concentration of 2.8*10^5 cells/ml. • Stir for 1 hour at room temperature. • Add 10 μl compound or control per well in white 96-well plates. • Add 90 μl of diluted cells (2.5*10^4 cells/well). • Measure chemoluminescence immediately for 20 seconds. • In antagonist mode 50 μl 10^−6 N6-benzyl-NECA is added as the agonist. • Measure chemoluminescence immediately for 20 seconds using the MicroBetaJet (PerkinElmer).

Where [6] appears, read: antagonist mode, N6-benzyl-NECA as the agonist.

As usually defined, the melting point is the temperature of the solid-liquid transition.

T2 sequence (P29274 whole entry): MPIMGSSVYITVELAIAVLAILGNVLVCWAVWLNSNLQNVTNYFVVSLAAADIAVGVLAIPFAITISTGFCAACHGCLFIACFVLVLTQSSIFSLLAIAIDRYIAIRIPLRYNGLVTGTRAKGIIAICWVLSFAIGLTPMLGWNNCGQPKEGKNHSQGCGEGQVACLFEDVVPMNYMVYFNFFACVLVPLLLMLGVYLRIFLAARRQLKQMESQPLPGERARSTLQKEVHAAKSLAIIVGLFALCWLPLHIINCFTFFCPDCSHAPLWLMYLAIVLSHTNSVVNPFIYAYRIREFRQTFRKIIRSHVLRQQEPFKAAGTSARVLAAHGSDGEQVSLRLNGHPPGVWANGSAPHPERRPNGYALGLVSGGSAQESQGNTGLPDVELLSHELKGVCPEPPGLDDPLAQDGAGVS

Regarding `FC(F)(F)c1nc(NCc2ccccc2)nc2nc[nH]c12` [Compound 6, 6-trifluoromethyl-2-benzylamino purine], the Ki was 3.98 µM in data set [1], 20 µM in data set [2], above 10 µM in data set [3] and 0.02 µM in data set [4]. Also, in data set [5], the EC50 was above 10 µM. The Kb in data set [5] (setting [6]) is 0.158 µM.

Turning to `Cn1cnc2c(C(F)(F)F)nc(NCc3ccccc3)nc21` [Compound 7, 6-trifluoromethyl-9-methyl-2-benzylamino purine], the Ki in data set [1] is above 10 µM; in data set [2], above 10 µM; in data set [3], above 10 µM; in data set [4], 3.16 µM. In data set [5], the EC50 is above 10 µM. The Kb in data set [5] (setting [6]) is 1.58 µM.

On to `OC[C@H]1O[C@@H](n2cnc3c(C(F)(F)F)nc(NCc4ccccc4)nc32)[C@H](O)[C@@H]1O` [Compound 8, 2-benzylamino-6-trifluoromethyl-9-β-D-ribofuranosyl purine], for which the Ki is 7.94 µM in data set [1], 12.6 µM in data set [2], above 10 µM in data set [3] and 0.316 µM in data set [4]. In data set [5] (setting [6]), the Kb was 0.0398 µM.

`FC(F)(F)c1nc(NCCc2ccccc2)nc2nc[nH]c12` [Compound 9, 6-trifluoromethyl-2-phenethylamino purine]: the Ki in data set [1] was 1 µM; in data set [2], 12.6 µM; in data set [3], above 10 µM; in data set [4] it was 0.0126 µM. For the same compound, the EC50 in data set [5] was above 10 µM. In addition, the Kb in data set [5] (setting [6]) was 0.002 µM.

`Cn1cnc2c(C(F)(F)F)nc(NCCc3ccccc3)nc21` [Compound 10, 6-trifluoromethyl-9-methyl-2-phenethylamino purine]: the Ki was 6.31 µM in data set [1], 15.8 µM in data set [2], 12.6 µM in data set [3] and 1.58 µM in data set [4]. In data set [5], the EC50 is above 10 µM. The Kb in data set [5] (setting [6]) is 3.16 µM.

`Cn1c(Br)nc2c(C(F)(F)F)nc(NCCc3ccccc3)nc21` [Compound 11, 8-bromo-6-trifluoromethyl-9-methyl-2-phenethylamino purine]: the melting point was 131 to 139 °C. Also, in data set [1], the Ki was above 10 µM. For the same compound, the Ki in data set [2] is above 10 µM. Further, the Ki in data set [4] is 1 µM.

As for `Cn1c(-c2cccs2)nc2c(C(F)(F)F)nc(NCCc3ccccc3)nc21` [Compound 14, 8-(thien-2-yl)-6-trifluoromethyl-9-methyl-2-phenethylamino purine], the Ki is 6.31 µM in data set [1], above 10 µM in data set [2] and 1.58 µM in data set [4]. In data set [5], the EC50 is above 10 µM. Further, the Kb in data set [5] (setting [6]) is 1.58 µM.

In the case of `Cn1c(/C=C\c2ccccc2)nc2c(C(F)(F)F)nc(NCCc3ccccc3)nc21` [Compound 22, 8-Z-styryl-6-trifluoromethyl-9-methyl-2-phenethylamino purine], the results for the Ki in data set [1], in data set [2] and in data set [4] were above 10 µM, above 10 µM and 2 µM, respectively. The EC50 in data set [5] was above 10 µM. Moreover, in data set [5] (setting [6]), the Kb was 1 µM.

On to `OC[C@H]1O[C@@H](n2cnc3c(C(F)(F)F)nc(NCCc4ccccc4)nc32)[C@H](O)[C@@H]1O` [Compound 26, 2-phenethylamino-6-CF3-9-β-D-ribofuranosyl purine], for which the “Adenosine receptor affinity (binding) A1 pKi” value in data set [1] is reported as below 5.0. In data set [2], the “Adenosine receptor affinity (binding) A2A pKi” value is below 5.0. Also, in data set [3], the “Adenosine receptor affinity (binding) A2B pKi” value is listed as below 5.0. Also, in data set [5] (setting [6]), the “Functional activity A3 antagonism pA2” value came out at 9.8.

With `CC(C)(C)OC(=O)OCn1cnc2c(C(F)(F)F)nc(NCc3ccccc3)nc21` [Compound 29, 6-trifluoromethyl-2-benzylamino-9-BocOM-purine], the Ki was 2.51 µM in data set [1], 20 µM in data set [2] and 0.0794 µM in data set [4]. Besides, the EC50 in data set [5] was above 10 µM. Further, the Kb in data set [5] (setting [6]) was 7.94 µM.
